Assays:
[1] = system: BT-474; test: normalised viability (% of control), CellTiter-Blue; higher = more viable cells (about 100 = DMSO control); settings: incubation time: 72 h
In short: (§1)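 The reported figure is normalised viability at a single listed concentration of the series. Breast cancer cell lines (20 µl suspension) went onto 384-well plates holding compound in 5 µl medium for 72 h. CellTiter-Blue (2.5 µl, 2 h, 37 °C) was read by fluorescence at 560/590 nm, and each plate was scaled to vehicle at 100 and a positive kill control at 0.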

[2] = system: MDA-MB-436; test: as above; settings: incubation time: 72 h
In short: as §1

[3] = system: CAL-120; test: as above; settings: incubation time: 72 h
In short: as §1

[4] = system: Hs578T; test: as above; settings: incubation time: 72 h
In short: as §1

[5] = system: SK-BR-3; test: as above; settings: incubation time: 72 h
In short: as §1

[6] = system: HDQ-P1; test: as above; settings: incubation time: 72 h
In short: as §1

[7] = system: HCC1143; test: as above; settings: incubation time: 72 h
In short: as §1

[8] = system: CAL-51; test: as above; settings: incubation time: 72 h
In short: as §1

[9] = system: MDA-MB-468; test: as above; settings: incubation time: 72 h
In short: as §1

[10] = system: HCC1937; test: as above; settings: incubation time: 72 h
In short: as §1

[11] = system: HCC1599; test: as above; settings: incubation time: 72 h
In short: as §1

[12] = system: MFM-223; test: as above; settings: incubation time: 72 h
In short: as §1

[13] = system: CAL-148; test: as above; settings: incubation time: 72 h
In short: as §1

[14] = system: BT-549; test: as above; settings: incubation time: 72 h
In short: as §1

[15] = system: MDA-MB-231; test: as above; settings: incubation time: 72 h
In short: as §1

[16] = system: DU-4475; test: as above; settings: incubation time: 72 h
In short: as §1

[17] = system: CAL-85-1; test: as above; settings: incubation time: 72 h
In short: as §1

[18] = system: MDA-MB-453; test: as above; settings: incubation time: 72 h
In short: as §1

[19] = system: MDA-MB-468; settings: 72 h
In short: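 Two sequential readouts followed a 72 h incubation of breast cancer cell lines with compound at 5 concentrations in 10-fold steps over a compound-specific 10,000-fold range: CellTox Green fluorescence (485/520 nm) for cell death, then CellTiter-Glo luminescence, after 10 min at room temperature, for viability. Each plate was normalised to 0.1 % DMSO and a positive kill control. Dose-response curves were fitted for EC50, censored at the top concentration.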

Cc1[nH]c2ccccc2c1CCNCc1ccc(/C=C/C(=O)NO)cc1 [Panobinostat]
normalised viability ([1]; 1 nM): 118% | normalised viability ([1]; 100 nM): 4.44% | normalised viability ([1]; 1000 nM): 9.36% | normalised viability ([2]; 1 nM): 110% | normalised viability ([2]; 100 nM): 59.1% | normalised viability ([2]; 1000 nM): 17% | normalised viability ([3]; 1 nM): 109% | normalised viability ([3]; 100 nM): 9.65% | normalised viability ([3]; 1000 nM): 3.59% | normalised viability ([4]; 1 nM): 152% | normalised viability ([4]; 100 nM): 13.8% | normalised viability ([4]; 1000 nM): 5.54% | normalised viability ([5]; 1 nM): 96.9% | normalised viability ([5]; 100 nM): 5.41% | normalised viability ([5]; 1000 nM): 3.54% | normalised viability ([6]; 0.3 nM): 120% | normalised viability ([6]; 3 nM): 115% | normalised viability ([6]; 10 nM): 93.1% | normalised viability ([7]; 1 nM): 102% | normalised viability ([7]; 100 nM): 20.7% | normalised viability ([7]; 1000 nM): 12.2% | normalised viability ([8]; 0.3 nM): 113% | normalised viability ([8]; 3 nM): 111% | normalised viability ([8]; 10 nM): 97.2% | normalised viability ([9]; 1 nM): 108% | normalised viability ([9]; 100 nM): 52.2% | normalised viability ([9]; 1000 nM): 16.7% | normalised viability ([10]; 1 nM): 110% | normalised viability ([10]; 100 nM): 26.2% | normalised viability ([10]; 1000 nM): 15.1% | normalised viability ([11]; 1 nM): 99.7% | normalised viability ([11]; 100 nM): 23% | normalised viability ([11]; 1000 nM): 16.3% | normalised viability ([12]; 1 nM): 102% | normalised viability ([12]; 100 nM): 20.2% | normalised viability ([12]; 1000 nM): 14.8% | normalised viability ([13]; 0.3 nM): 96.5% | normalised viability ([13]; 3 nM): 104% | normalised viability ([13]; 10 nM): 59.4% | normalised viability ([14]; 1 nM): 97.7% | normalised viability ([14]; 100 nM): 68.7% | normalised viability ([14]; 1000 nM): 14.7% | normalised viability ([15]; 1 nM): 120% | normalised viability ([15]; 100 nM): 13.3% | normalised viability ([15]; 1000 nM): 7.26% | normalised viability ([16]; 0.3 nM): 112% | normalised viability ([16]; 3 nM): 92.4% | normalised viability ([16]; 10 nM): 81.6% | normalised viability ([17]; 0.3 nM): 98% | normalised viability ([17]; 3 nM): 88.3% | normalised viability ([17]; 10 nM): 81.4% | normalised viability ([18]; 0.3 nM): 121% | normalised viability ([18]; 3 nM): 64.3% | normalised viability ([18]; 10 nM): 22.7% | EC50, CellTiter-Glo [19]: 0.039 µM

CNC(=O)c1cc(Oc2ccc(NC(=O)Nc3ccc(Cl)c(C(F)(F)F)c3)c(F)c2)ccn1 [Regorafenib]
normalised viability ([1]; 10 nM): 94.5% | normalised viability ([1]; 1000 nM): 103% | normalised viability ([1]; 10000 nM): 38.8% | normalised viability ([2]; 10 nM): 115% | normalised viability ([2]; 1000 nM): 102% | normalised viability ([2]; 10000 nM): 65.2% | normalised viability ([3]; 10 nM): 89.4% | normalised viability ([3]; 1000 nM): 102% | normalised viability ([3]; 10000 nM): 46% | normalised viability ([4]; 10 nM): 96.4% | normalised viability ([4]; 1000 nM): 90.7% | normalised viability ([4]; 10000 nM): 38.3% | normalised viability ([5]; 10 nM): 93.5% | normalised viability ([5]; 1000 nM): 95.8% | normalised viability ([5]; 10000 nM): 72.2% | normalised viability ([6]; 3 nM): 101% | normalised viability ([6]; 30 nM): 109% | normalised viability ([6]; 100 nM): 100% | normalised viability ([7]; 10 nM): 76.8% | normalised viability ([7]; 1000 nM): 77.8% | normalised viability ([7]; 10000 nM): 75.4% | normalised viability ([8]; 3 nM): 106% | normalised viability ([8]; 30 nM): 106% | normalised viability ([8]; 100 nM): 104% | normalised viability ([9]; 10 nM): 111% | normalised viability ([9]; 1000 nM): 116% | normalised viability ([9]; 10000 nM): 34.5% | normalised viability ([10]; 10 nM): 94.9% | normalised viability ([10]; 1000 nM): 90.3% | normalised viability ([10]; 10000 nM): 35.1% | normalised viability ([11]; 10 nM): 100% | normalised viability ([11]; 1000 nM): 107% | normalised viability ([11]; 10000 nM): 56.3% | normalised viability ([12]; 10 nM): 107% | normalised viability ([12]; 1000 nM): 57.1% | normalised viability ([12]; 10000 nM): 31.2% | normalised viability ([13]; 3 nM): 88% | normalised viability ([13]; 30 nM): 90.2% | normalised viability ([13]; 100 nM): 95.3% | normalised viability ([14]; 10 nM): 98.8% | normalised viability ([14]; 1000 nM): 102% | normalised viability ([14]; 10000 nM): 37.4% | normalised viability ([15]; 10 nM): 90.5% | normalised viability ([15]; 1000 nM): 68.1% | normalised viability ([15]; 10000 nM): 31.7% | normalised viability ([16]; 3 nM): 114% | normalised viability ([16]; 30 nM): 100% | normalised viability ([16]; 100 nM): 120% | normalised viability ([17]; 3 nM): 84.7% | normalised viability ([17]; 30 nM): 89.1% | normalised viability ([17]; 100 nM): 88% | normalised viability ([18]; 3 nM): 102% | normalised viability ([18]; 30 nM): 109% | normalised viability ([18]; 100 nM): 101% | EC50, CellTiter-Glo [19]: 6.34 µM
